Test results: US10722578B2, “Methods and compositions for treating neuroblastoma” (The Children's Hospital of Philadelphia, priority 2008, dated 2020)
Several values for one entry are separate records, joined by “and”; a condition that tells them apart may be missing. Equal values may be shown once. Entries after “also recorded” stand apart in the source; their conditions may differ. Read-outs that look alike come from different tables or passages of the source.

Key:
neuroblastoma cell lines = test: In vitro growth inhibition (RT-CES), panel of neuroblastoma cell lines; format: cell-based, human; conditions: 333 nM, 72 hours; for Inhibition of growth, cell lines with ALK amplification or mutations: compared with normal copy number wild type ALK lines
Excerpt: A quantitative assay to evaluate growth inhibition in a multi-well was used in a parallel format to screen for cellular cytotoxicity. […] For FIG. 7, the biochemical consequences of ALK activation and downstream signaling pathways were studied in ALK-mutant lines.
(§1) To verify cell line integrity, all lines were routinely genotyped (AmpFLSTR® Identifiler® kit; Applied Biosystems) and mycoplasma tested.
It has been shown that mRNA knockdown of ALK in neuroblastoma cell lines with mutation or amplification is cytotoxic, and thus ALK inhibition might offer a tractable therapeutic target.

pSTAT3, pAKT, and pERK = test: In vitro phosphoprotein detection (immunoblot), downstream signaling; conditions: NB1 (wild type amplified)
SKNAS (WT) xenografts = conditions: 100 mg/kg/day oral gavage, 4 weeks
NBSD (F1174L) xenografts = conditions: 100 mg/kg/day oral gavage, 4 weeks
SY5Y cells [1] = test: Antibody-dependent cell-mediated cytotoxicity assay, SY5Y targets; format: cell-based, human; conditions: SY5Y pre-incubated 48 hours with crizotinib, then ALK antibody, mean
Protocol: The Cyto Tox 96 Non-Radioactive Cytotoxicity Assay (Promega) was used to assess antibody-dependent cell mediated cytotoxicity. […] Non-adherent peripheral blood lymphocytes were then replated in complete RPMI containing 1000 IU/ml rhIL-2 (Chiron) and incubated overnight. The following day, effector cells were collected and washed. Target NB1 or SY5Y cells that had been grown on T75 flasks until 70-80% confluency were also harvested and washed. […] Control wells were plated according to the manufacturer's specifications. After a 4-hour incubation at 37° C., cell viability was assessed by an enzymatic assay allowing for the quantification of lactate dehydrogenase which is released upon cell lysis. The % cytotoxicity was calculated as follows: [(Experimental−Effector Spontaneous−Target Spontaneous)/(Target Maximum−Target Spontaneous)]×100. […] Results shown are representative of three independent experiments, and quoted as mean±standard deviation.

[2] = system: SHSY5Y (F1174L) xenografts; conditions: 100 mg/kg/day oral gavage, 4 weeks; end point tumor volume ≥1.5 cm^3 or treatment related death
SH-SY5Y (F1174L) = conditions: did not occur until this dose
Excerpt: as §1

NB1 (WT amplification) = conditions: NB1, dose-dependent
Excerpt: as §1

NB1643 (R1275Q) = conditions: NB1643, dose-dependent
Excerpt: as §1

SY5Y cells [3] = test: Propidium iodide staining, cell cycle analysis, SY5Y; format: cell-based, human; conditions: 1000 nM crizotinib, 10 μg/ml antibody, or both, mean
NBEBc1 (WT) xenografts = conditions: 100 mg/kg/day oral gavage, 4 weeks

C[C@@H](Oc1cc(-c2cnn(C3CCNCC3)c2)cnc1N)c1c(Cl)ccc(F)c1Cl [PF-02341066, crizotinib]
Inhibition of growth, cell lines with normal copy number WT ALK (neuroblastoma cell lines): No cell lines with normal copy number WT ALK showed significant inhibition
Sensitivity of R1275Q cell lines compared with F1174L cell lines (neuroblastoma cell lines): more sensitive
Inhibition of growth, cell lines with ALK amplification or mutations (neuroblastoma cell lines): significantly superior inhibition of growth
Inhibition of growth, cell lines with ALK amplification or mutations (neuroblastoma cell lines; listed as PF2341066): sensitive; also recorded: significantly more sensitive
Sensitivity of R1275Q cell lines compared with F1174L cell lines (neuroblastoma cell lines; listed as PF2341066): R1275Q mutations were more sensitive than F1174L mutations; also recorded: significantly more sensitive
Abrogation of phosphorylation of STAT3, AKT and ERK (pSTAT3, pAKT, and pERK): substantial abrogation
Prolongation of survival / days to reach tumor volume of 1.5 cm^3 (SKNAS (WT) xenografts): non-significant difference in days to reach a tumor volume of 1.5 cm^3
Prolongation of survival / days to reach tumor volume of 1.5 cm^3 (SKNAS (WT) xenografts; listed as PF-2341066): neither a delay in tumor growth (P=0.87) or prolongation of survival
Prolongation of survival (NBSD (F1174L) xenografts): 3.7 days
ADCC % cytotoxicity (SY5Y cells [1]; effector:target 25:1): 33.7±2.5%
ADCC % cytotoxicity (SY5Y cells [1]; effector:target 50:1): 55.7±9.3%
Prolongation of survival [2]: 7.7 days
Dose at which inhibition of proliferation occurred (SH-SY5Y (F1174L)): 1000 nM
Dose at which inhibition of proliferation occurred (NB1 (WT amplification)): 33 to 100 nM
Dose at which inhibition of proliferation occurred (NB1643 (R1275Q)): 33 to 100 nM and 33 nM
sub G0 fraction (SY5Y cells [3]): increased the sub G0 fraction, but to a smaller extent than seen with dual treatment
Prolongation of survival (NBEBc1 (WT) xenografts): 5.1 days
